Experimental data reported in patent US20100069366A1, “ANTIBACTERIAL QUINOLINE DERIVATIVES” (JANSSEN-CILAG, priority 2006, published 2010).
In brackets after ≈: the same amount, converted by molar mass. Where two headings read alike, the source gives them in different places.

Key:
Format in all cases: cell-based
M. Smegmatis ATCC607 = assay: In-vitro anti-bacterial activity against strain M. smegmatis ATCC607; details: for IC90: Mycolicibacterium smegmatis
Method: Flat-bottom, sterile 96-well plastic microtiter plates were filled with 180 μl of sterile deionized water, supplemented with 0.25% BSA. Subsequently, stock solutions (7.8× final test concentration) of compounds were added in 45 μl volumes to a series of duplicate wells in column 2 so as to allow evaluation of their effects on bacterial growth. Serial five-fold dilutions (45 μl in 180 μl) were made directly in the microtiter plates from column 2 to 11 using a customised robot system (Zymark Corp., Hopkinton, Mass.). Pipette tips were changed after every 3 dilutions to minimize pipetting errors with high hydrophobic compounds. Untreated control samples with (column 1) and without (column 12) inoculum were included in each microtiter plate. Approximately 250 CFU per well of bacteria inoculum, in a volume of 100 μl in 2.8× Mueller-Hinton broth medium, was added to the rows A to H, except column 12. The same volume of broth medium without inoculum was added to column 12 in row A to H. The cultures were incubated at 37° C. for 48 hours in a humidified 5% CO2 atmosphere (incubator with open air valve and continuous ventilation). At the end of incubation, two days after inoculation, the bacterial growth was quantitated fluorometrically. Therefore Alamar Blue (10×) was added to all wells in a volume of 20 μl and plates were incubated for another 2 hours at […]
The fluorescence was read in a computer-controlled fluorometer (Cytofluor, Biosearch) at an excitation wavelength of 530 nm and an emission wavelength of 590 nm (gain 30).

[1] = tested on: Streptococcus pyogens (ATCC8668); assay: Microtitre plate assay, IC90 determination, SPY 8668
Method: (§1) The bacteria used in this study were grown overnight in flasks containing 100 ml Mueller-Hinton Broth (Becton Dickinson—cat. no. 275730) in sterile de-ionized water, with shaking, at 37° C. Stocks (0.5 ml/tube) were stored at −70° C. until use. Bacteria titrations were performed in microtiter plates to detect the TCID50, in which the TCID50 represents the dilution that gives rise to bacterial growth in 50% of inoculated cultures.
(§2) In general, an inoculum level of approximately 100 TCID50 was used for susceptibility testing.
(§3) Flat-bottom, sterile 96-well plastic microtiter plates were filled with 180 μl of sterile deionized water, supplemented with 0.25% BSA. Subsequently, stock solutions (7.8× final test concentration) of compounds were added in 45 μl volumes in column 2 Serial five-fold dilutions (45 μl in […]) were made directly in the microtiter plates from column 2 to reach column 11. Untreated control samples with (column 1) and without (column 12) inoculum were included in each microtiter plate. Depending on the bacteria type, approximately 10 to 60 CFU per well of bacteria inoculum (100 TCID50), in a volume of 100 μl in 2.8× Mueller-Hinton broth medium, was added to the rows A to H, except column 12. The same volume of broth medium without inoculum was added to column 12 in row A to H. The cultures were incubated at 37° C. for 24 hours under a normal atmosphere (incubator with open air valve and continuous ventilation). At the end of incubation, one day after inoculation, the bacterial growth was quantitated fluorometrically. Therefore resazurin (0.6 mg/ml) was added in a volume of 20 μl to all wells 3 hours after inoculation, and the plates were re-incubated overnight. A change in colour from blue to pink indicated the growth of bacteria. The fluorescence was read in a computer-controlled fluorometer (Cytofluor Biosearch) at an excitation wavelength of 530 nm and an emission wavelength of 590 nm. The % growth inhibition achieved by the compounds was calculated according to standard methods.

[2] = tested on: Staphylococcus aureus (ATCC29213); assay: Microtitre plate assay, IC90 determination, STA 29213
Method: as §1, §2, §3

[3] = tested on: Streptococcus pneumoniae (ATCC6305); assay: Microtitre plate assay, IC90 determination, SPN 6305; details: 90% inhibitory concentration for bacterial growth, resazurin
Method: as §1, §2, §3

[4] = tested on: Enterococcus faecalis (ATCC29212); assay: Microtitre plate assay, IC90 determination, EFA 29212; details: Enterococcus faecalis ATCC29212, 90% inhibitory concentration for bacterial growth, resazurin
Method: as §1, §2, §3

[5] = tested on: Pseudomonas aeruginosa (ATCC27853); assay: Microtitre plate assay, IC90 determination, PAE 27853
Method: as §1, §2, §3

[6] = ATCC607, 90% inhibitory concentration for bacterial growth, 48 hours, Alamar Blue fluorescence, read-out: M. smegmatis IC90
[7] = Staphylococcus aureus ATCC29213, 90% inhibitory concentration for bacterial growth, resazurin, read-out: IC90 (μg/ml) STA 29213
[8] = Streptococcus pneumoniae ATCC6305, read-out: IC90 (μg/ml) SPN 6305
[9] = ATCC607, 48 h, read-out: M. smegmatis IC90 (μg/ml), 90% inhibitory concentration for bacterial growth, Alamar Blue fluorescence
[10] = Staphylococcus aureus, ATCC29213, read-out: IC90 (μg/ml) STA 29213
[11] = Streptococcus pneumoniae, ATCC6305, read-out: IC90 (μg/ml) SPN 6305, Streptococcus pneumoniae ATCC6305

IC90 [2, 7] | IC90 [3, 8] | SMILES | IC90 (M. Smegmatis ATCC607; [6]) | IC90 (M. Smegmatis ATCC607; [9]) | IC90 [2, 10] | IC90 [3, 11] | other results
15.6 µg/mL (≈ 31.6 µM) | 7.82 µg/mL (≈ 15.8 µM) | COc1nc2ccc(Br)cc2cc1C(/C(=C/CN(C)C)c1ccsc1)c1ccccc1 (centres unmarked) [Compound 17] | 39.2 µg/mL (≈ 79.4 µM) | – | – | – | IC90 ([1]; Streptococcus pyogens ATCC8668, 90% inhibitory concentration for bacterial growth, resazurin, read-out: IC90 (μg/ml) SPY 8668): 19.6 µg/mL (≈ 39.8 µM); IC90 ([4]; read-out: IC90 (μg/ml) EFA 29212): 39.2 µg/mL (≈ 79.4 µM); IC90 ([5]; Pseudomonas aeruginosa ATCC27853, 90% inhibitory concentration for bacterial growth, resazurin, read-out: IC90 (μg/ml) PAE 27853): 44 µg/mL (≈ 89.1 µM)
– | – | COc1nc2ccc(Br)cc2cc1C(/C(=C/C[N+](C)(C)C)c1cccc(F)c1)c1ccccc1 (centres unmarked) [Compound 23] | – | 1.85 µg/mL | 1.65 µg/mL | 1.85 µg/mL | IC90 ([1]; Streptococcus, ATCC8668, read-out: IC90 (μg/ml) SPY 8668): 1.65 µg/mL; IC90 ([5]; Pseudomonas aeruginosa, ATCC27853, read-out: IC90 (μg/ml) PAE 27853): 6.55 µg/mL
– | – | COc1nc2ccc(Br)cc2cc1C(=C(CCN(C)C)c1cccc(F)c1)c1ccccc1 [Compound 38] | – | – | – | – | M. smegmatis IC90 (M. Smegmatis ATCC607; 90% inhibitory concentration for bacterial growth, 48 hours, Alamar Blue fluorescence): 8.01 µg/mL; IC90 (μg/ml) SPY 8668 ([1]; Streptococcus pyogens ATCC8668, 90% inhibitory concentration for bacterial growth, resazurin): 3.58 µg/mL (≈ 7.08 µM); IC90 (μg/ml) STA 29213 ([2]; Staphylococcus aureus ATCC29213, 90% inhibitory concentration for bacterial growth, resazurin): 10.08 µg/mL (≈ 19.9 µM); IC90 (μg/ml) SPN 6305 ([3]; Streptococcus pneumoniae ATCC6305): 8.01 µg/mL (≈ 15.8 µM); IC90 (μg/ml) EFA 29212 [4]: 8.01 µg/mL (≈ 15.8 µM); IC90 (μg/ml) PAE 27853 ([5]; Pseudomonas aeruginosa ATCC27853, 90% inhibitory concentration for bacterial growth, resazurin): 8.99 µg/mL (≈ 17.8 µM)
47.7 µg/mL (≈ 100 µM) | 21.3 µg/mL (≈ 44.7 µM) | COc1ccc(/C(CCCCN2CCCCC2)=C(/c2ccccc2)c2cnc3ccccc3c2)cc1 [Compound 51] | 7.55 µg/mL (≈ 15.8 µM) | – | – | – | –
– | – | Clc1ccc(/C(CCCCN2CCCCC2)=C(/c2ccc(Cl)cc2)c2cnc3ccccc3c2)cc1 [Compound 52] | – | 1.63 µg/mL (≈ 3.16 µM) | 10.3 µg/mL (≈ 20 µM) | 10.3 µg/mL (≈ 20 µM) | –
9.09 µg/mL (≈ 17.8 µM) | 10.2 µg/mL (≈ 20 µM) | COc1ccc(/C(CCCCN2CCCCC2)=C(/c2ccc(Cl)cc2)c2cnc3ccccc3c2)cc1 [Compound 53] | 2.03 µg/mL (≈ 3.97 µM) | – | – | – | –
– | – | N#Cc1ccc(/C(=C(\CCCCN2CCCCC2)c2ccccc2)c2cnc3ccccc3c2)cc1 [Compound 54] | – | 11.8 µg/mL (≈ 25.1 µM) | 42 µg/mL (≈ 89.1 µM) | 47.2 µg/mL (≈ 100 µM) | –
– | – | N#Cc1ccc(/C(=C(\CCCCN2CCCCC2)c2ccc(Cl)cc2)c2cnc3ccccc3c2)cc1 [Compound 55] | – | 8.02 µg/mL (≈ 15.8 µM) | 8.02 µg/mL (≈ 15.8 µM) | 10.1 µg/mL (≈ 20 µM) | –
– | – | COc1ccc(/C(=C(\CCCCN2CCCCC2)c2ccc(Cl)cc2)c2cnc3ccccc3c2)cc1 [Compound 58] | – | 8.1 µg/mL (≈ 15.8 µM) | 10.2 µg/mL (≈ 20 µM) | 12.8 µg/mL (≈ 25.1 µM) | –
1.97 µg/mL (≈ 3.17 µM) | 2.48 µg/mL (≈ 3.99 µM) | COc1nc2ccc(Br)cc2cc1C(/C(=C/C#N)CCCCN1CC2CC1CN2Cc1ccccc1)c1ccccc1 (centres unmarked) [Compound 60] | 1.97 µg/mL (≈ 3.17 µM) | – | – | – | –
1.76 µg/mL (≈ 3.16 µM) | 1.76 µg/mL (≈ 3.16 µM) | CCN(C)CCC/C=C(\CCc1ccccc1)C(c1ccccc1)c1cc2cc(Br)ccc2nc1OC (centres unmarked) [Compound 61] | 1.76 µg/mL (≈ 3.16 µM) | – | – | – | –
